# Source: patent US20250243192A1, “CRYSTALLINE FORM OF LANIFIBRANOR” (INVENTIVA, priority 2022, published 2025)
# Experiments:
# Format in all cases: physicochemical
# [1] = Competitive slurry tests (stability tests) in various solvents, solid analysed by PXRD; conditions: room temperature; for Form(s) present T0: immediately after stirring was initiated
# Experimental: Competitive slurry tests were performed in various solvents such as acetone, ethanol, ethyl acetate, acetic acid, methyl ethyl ketone and methyl isobutyl ketone.
# A saturated solution of lanifibranor form beta (as obtained in example 2) was prepared for each solvent. An equal amount of lanifibranor form alpha and lanifibranor form beta was introduced into a vial (50 mg+50 mg), and 250 μL of the saturated solution prepared beforehand (recovered by filtration through a 0.2 μm H-PTFE filter) were then added. The mixture was stirred at room temperature, samples of the solid were taken immediately after stirring was initiated and 24 hours after, and analyzed by PXRD to identify the solid form(s) present.
# [2] = Compression tests, pellet analysed by PXRD; conditions: 100 mg, 13 mm die, 10-Ton pressure for 15 minutes
# Experimental: Compression tests were performed on the crystalline forms (alpha, beta) and on the amorphous form of lanifibranor. 100 mg of each sample were introduced between […] into a 13 mm die and subjected to a 10-Ton pressure for 15 minutes. The pellet obtained was then de-compacted and analysed by PXRD in order to monitor changes in the crystal structure of the sample.
# [3] = Screening for solid forms of lanifibranor
# Excerpt: An amorphous form was further obtained.
# [4] = Dynamic vapor sorption (DVS) analysis; conditions: range 0% RH-95% RH, 25° C.
# Experimental: DVS analysis was conducted on a SMS DVS Intrinsic system. Analyses were performed on a few milligrams of sample, in open aluminum pans at 25° C. The stability criterion for each step was a weight change lower than 0.002% on a 5 min time frame. The time criterion for each step was 100 min (minimum duration by step: 10 min). Relative humidity was scanned between 0% RH and 95% RH with 10% RH steps (40-0-95-0-95).
# [5] = Thermogravimetry (TGA) analysis; conditions: temperature range 25-200° C.
# Experimental: TGA analysis was conducted on a Mettler Toledo TGA/DSC3+ thermogravimetric analyzer. Analyses were performed on a few milligrams of sample, in 100 µL sealed aluminum pans, punctured before analysis, under nitrogen flush at 50 mL/min. A temperature range between 25° C. and 300° C. was scanned at a 10° C./min rate.
# [6] = Stability testing in accordance with EMA guidance (CPMP/ICH/2736/99), PXRD and DSC after storage
# Experimental: Lanifibranor form beta, as obtained in example 2, was submitted to stability testing in accordance with EMA guidance (CPMP/ICH/2736/99, last revised in August 2003); the drug substance was thus stored under the following conditions: • 6 months at 30° C./65° RH, • 6 months at 40° C./75% RH, and • 12 months at 25° C./60% RH.
# At the end of each storage period, the drug substance was characterized by PXRD and by DSC.
compound,measurement,setting,value
O=C(O)CCCc1cc2cc(Cl)ccc2n1S(=O)(=O)c1ccc2ncsc2c1 [1-(6-benzothiazolylsulfonyl)-5-chloro-1H-indole-2-butanoic acid],Form(s) present T0 + 24 h,[1]; acetic acid,form beta
same,Form(s) present T0,[1]; acetic acid,form alpha + form beta
same,Form(s) present T0 + 24 h,[1]; acetone,form beta
same,Form(s) present T0,[1]; acetone,form alpha + form beta
same,Form(s) present T0 + 24 h,[1]; ethanol,form beta
same,Form(s) present T0,[1]; ethanol,form alpha + form beta
same,Form(s) present T0 + 24 h,[1]; ethyl acetate,form beta
same,Form(s) present T0,[1]; ethyl acetate,form alpha + form beta
same,Form(s) present T0 + 24 h,[1]; methyl ethyl ketone,form beta
same,Form(s) present T0,[1]; methyl ethyl ketone,form alpha + form beta
same,Form(s) present T0 + 24 h,[1]; methyl isobutyl ketone,form beta
same,Form(s) present T0,[1]; methyl isobutyl ketone,form alpha + form beta
"O=C(O)CCCc1cc2cc(Cl)ccc2n1S(=O)(=O)c1ccc2ncsc2c1 [amorphous form, 1-(6-benzothiazolylsulfonyl)-5-chloro-1H-indole-2-butanoic acid]",change in the solid form after compression (PXRD),[2],weak diffraction signals corresponding to form beta were detected after compression
same,stability of the solid form upon handling/processing,[3],crystallize into form alpha or form beta even at low temperatures
"O=C(O)CCCc1cc2cc(Cl)ccc2n1S(=O)(=O)c1ccc2ncsc2c1 [lanifibranor form alpha, 1-(6-benzothiazolylsulfonyl)-5-chloro-1H-indole-2-butanoic acid]",change in the solid form after compression (PXRD),[2],additional signals that could correspond to peak shifts caused by a transformation to form beta
same,stability of the solid form upon handling/processing,[3],did readily convert to the other form upon handling/processing
"O=C(O)CCCc1cc2cc(Cl)ccc2n1S(=O)(=O)c1ccc2ncsc2c1 [lanifibranor form beta, 1-(6-benzothiazolylsulfonyl)-5-chloro-1H-indole-2-butanoic acid]",maximum uptake (weight variation) in DVS,[4],+0.1%
same,weight loss in TGA curve,[5],does not highlight any significant weight loss
same,relative stability of the solid forms,[1]; conclusion from the competitive slurries in all solvents,most stable form at room temperature
same,change in the solid form after compression (PXRD),[2],no significant change in the solid form
same,solid form stability on storage (PXRD and DSC),[6]; 6 months at 30° C./65° RH,stable over long-term storage
same,solid form stability on storage (PXRD and DSC),[6]; 6 months at 40° C./75% RH,stable over long-term storage
same,solid form stability on storage (PXRD and DSC),[6]; 12 months at 25° C./60% RH,stable over long-term storage
same,stability of the solid form upon handling/processing,[3],more stable form
